Experimental data taken from patent US20120282331A1, “MAMMALIAN METABOLITES OF STEROIDS” (TOKAI PHARMACEUTICALS, INC., priority 2009, published 2012).

Tests used:
[1] = Solubility in incubation medium; format: physicochemical; details: presence versus absence of MgCl2/EDTA
Description: However, the role of the divalent cation, MgCl2 in the activation of the CYP 450 activity is not well defined (Saito et al., 2006, Tamura et al., 1988).

[2] = Metabolic stability in pooled monkey liver microsomes; format: in vitro ADME; details: EDTA and MgCl2; for depletion (negative = increase in concentration): absence of NADPH-GS
Procedure: (§1) The depletion of the parent compound and the formation of metabolites in a time-dependent manner were explored in the presence or absence of an NADPH-generating system.
(§2) 3β-Hydroxy-17(1H-benzimidazol-1-yl)androsta-5,16-diene is incubated with pooled rat, dog, monkey and human liver microsomes at a protein concentration of 0.6 mg/mL. Incubation mixture contains either 0.1 M potassium phosphate buffer pH 7.4 or the incubation buffer. Following two minutes of pre-incubation of the incubation mixture at ˜37° C., the reaction is started by the addition of an NADPH-generating system (NADPH-GS) (1 mM NADP+, 5 mM glucose-6-phosphate, 1.0 unit/mL glucose-6-phosphate dehydrogenase) or 0.1 M phosphate buffer. At the appropriate time points (0, 15, 30, 60 and 120 minutes), reactions are stopped by the addition of appropriate stop solutions (0.1% formic acid in acetonitrile). The samples are centrifuged at approximately 10 000×g for 10 minutes at 20° C. An amount of supernatant from each sample is transferred to pre-labeled HPLC vials for analysis. Samples are analyzed by LC/MS to monitor the remaining parent compound or formation of potential metabolites. On each occasion, blank sample containing TOK-001 but without microsomes, is included.

[3] = Metabolic stability in pooled human liver microsomes; format: in vitro ADME
Procedure: as §1, §2

[4] = Metabolic stability in pooled dog liver microsomes; format: in vitro ADME
Procedure: as §1, §2

[5] = Metabolic stability in pooled rat liver microsomes; format: in vitro ADME
Procedure: as §1, §2

[6] = EDTA and MgCl2, up to 120 minutes
[7] = 10 μM, EDTA and MgCl2, up to 60 minutes
[8] = 10 μM, EDTA and MgCl2, without NADPH-GS, 120 minutes

Structure (SMILES): C[C@]12CC[C@H](O)CC1=CC[C@@H]1[C@@H]2CC[C@]2(C)C(n3cnc4ccccc43)=CC[C@@H]12 [Compound (1), 3β-Hydroxy-17(1H-benzimidazol-1-yl)androsta-5,16-diene]
- dissolution in incubation medium [1]: slightly better in the absence of MgCl2/EDTA
- depletion (negative = increase in concentration) ([2]; 10 μM, 30 minutes): ~−14%
- depletion (negative = increase in concentration) ([2]; 10 μM, 120 minutes): ~−12%
- depletion of parent compound ([2]; 10 μM, with NADPH-GS, 30 minutes): ~16%
- metabolic stability ([2]; up to 120 minutes): less stable
- depletion of parent compound ([3]; 10 μM, EDTA and MgCl2, absence of NADPH-GS): ~7%
- depletion of parent compound ([3]; 10 μM, EDTA and MgCl2, with NADPH-generating system, over 120 minutes): ≤ 11%
- metabolized (depletion) ([3]; 0.1 M phosphate buffer only, NADPH and time-dependent): ≥ 50%
- metabolic stability [3, 6]: metabolically stable
- recovery at 120 min, 10 μM ([3]; both sexes, human, pooled human liver microsomes, 10 μM, phosphate buffer, 1 mM EDTA, 3 mM MgCl2, with NADPH-generating system, over 120 minutes): ~89%
- depletion compared to the 0 minute incubation ([4]; 10 μM, 0.1 M phosphate buffer only, with NADPH-generating system, 120 minutes): ~25%
- metabolic stability ([4]; 10 μM, 0.1 M phosphate buffer only, with NADPH-generating system, up to 60 minutes): metabolically stable
- metabolic stability [4, 7]: metabolically stable
- decrease of parent compound in negative control [4, 8]: ~21%
- metabolic stability [4, 6]: metabolically stable
- recovery at 60 min, 10 μM ([4]; both sexes, dog, pooled dog liver microsomes, 10 μM, phosphate buffer, 1 mM EDTA, 3 mM MgCl2, with NADPH-generating system, 60 minutes, read-out: recovery compared to the 0 minute): ~85%
- metabolic stability [5, 7]: metabolically stable
- depletion of parent compound ([5]; 10 μM, EDTA and MgCl2, with NADPH-GS, 120 minutes): ~21%
- change of parent compound in negative control [5, 8]: slight increase
- metabolic stability [5, 6]: metabolically stable
- recovery at 120 min, 10 μM ([5]; both sexes, rat, pooled rat liver microsomes, pH 7.4, 10 μM, 0.1 M phosphate buffer only, with NADPH-generating system, 120 minutes, read-out: recovery compared to the 0 minute incubation): ~86%
- recovery at 60 min, 10 μM ([5]; both sexes, rat, pooled rat liver microsomes, 10 μM, phosphate buffer, 1 mM EDTA, 3 mM MgCl2, with NADPH-generating system, 60 minutes, read-out: recovery compared to the 0 minute incubation): ~85%
- recovery at 120 min, 10 μM ([5]; both sexes, rat, pooled rat liver microsomes, 10 μM, phosphate buffer, 1 mM EDTA, 3 mM MgCl2, with NADPH-generating system, 120 minutes, read-out: recovery compared to the 0 minute): ~79%
